One compound from patent US8163788B2, “Low-molecular inhibitors of cytohesin-family guanine nucleotide exchange factors” (Rheinische Friedrich-Wilhelms Universitat Bonn, priority 2004, dated 2012) can be followed below.

Common to all, as to type: cell-based
The nature of data set [1]: MTT assay (LC50) in HeLa-cells. Conditions: human, after 24 hours. Here is the method: The LC50 values were determined by an MTT assay according to a standard method.
The LC50 value describes the lethal concentration at which […] died within 24 hours after a one-time administration.
In general terms: Tetrazolium dyes change colour on reduction, which living cells bring about.

For data set [2], the system named is human dendritic cells. The data set is described as follows: migration (chemotaxis) of dendritic cells in modified Boyden chambers on ICAM-1. Conditions: 1 μM, 10 μM or 15 μM, 96 hours; chemokines CCL19 or CXCL12; FIG. 5. Here is the method:
(§1) Dendritic cells were produced in vitro by means of differentiation factors (IL-4 and GM-CSF) from blood monocytes that were isolated from peripheral mononuclear cells (PBMC) by Ficoll density gradient centrifugation from the human blood of anonymous donors.
The blood was mixed at a ratio of 1:1 with PBS (KCl 0.2 g/l, KH2PO4 0.2 g/l, NaCl 8 g/l, Na2HPO4 1.15 g/l, PAA, Cölbe)/2 mM EDTA and layered onto half the volume of Ficoll. Centrifugation was carried out at 300×g, 30 minutes with no brake. After the centrifugation, a centered white band appeared which contained the PBMC. This was picked up with PBS/2 mM EDTA, filled up to 50 ml and subjected to several washing steps at 640×g, 500×g, 400×g, 300×g and 200×g. Subsequently, the cells were picked up in a titer of 5×10^6/ml in “VLE-RPMI+/+”-medium (Biochrom, Berlin, containing 10% fetal calf serum (FCS) and 1% penicillin/streptomycin) and incubated for 90 minutes in an incubator at 37° C. [98.6° F.] and 5% CO2. During this time, the monocytes adhere to the bottom of the culture dish. […]
(§2) The quantitative analysis of the cell migration was carried out in modified Boyden chambers consisting of a 24-hole plate into which the Transwell® filters with a 5 μm pore size had been placed. […] [98.6° F.] and 5% CO2 in the incubator and subsequently, the number of cells that had migrated into the lower chamber in the direction of the chemokine was determined. […]

Data set [3] deals with Peripheral blood lymphocytes. Briefly: cytotoxicity by propidium iodide (PI) flow cytometry. Conditions: 50 nM to 50 μM. Here is the method: The cytotoxicity of the compound according to Formula (9) was determined by means of propidium iodide (PI) employing flow cytometry. PI is a DNA stain that cannot penetrate into living cells. The experiments were carried out in an incubator at 37° C. [98.6° F.] and 5% CO2.
Peripheral blood lymphocytes were incubated with concentrations of 50 nM, 100 nM, 1 μM, 5 μM, 20 μM or 50 μM of the compound according to Formula (9) in “VLE-RPMI+/+” (Biochrom). The DMSO concentration per batch was 0.5%. A control batch contained 0.5% DMSO. After 2 hours, 24 hours and 72 hours, cells were removed and incubated with 2 μg/ml of PI for 5 minutes. The cells were centrifuged at 200×g for 8 minutes, washed with PBS, centrifuged again and analyzed in a flow cytometer (Beckmann Coulter, Krefeld).
A general note: Flow cytometry measures light scatter and fluorescence of single cells or particles in a stream.

Data set [4] has as its system human dendritic cells. The data set is described as follows: adhesion of dendritic cells to the substrate ICAM-1. As to conditions: 1 μM, 10 μM or 15 μM, 96 hours; stimulation with PMA or MEM-48; FIG. 4. Here is the method:
as §1
The blood was mixed at a ratio of 1:1 with PBS (KCl 0.2 g/l, KH2PO4 0.2 g/l, NaCl 8 g/l, Na2HPO4 1.15 g/l, PAA, Cölbe)/2 mM EDTA and layered onto half the volume of Ficoll. Centrifugation was carried out at 300×g, 30 minutes with no brake. After the centrifugation, a centered white band appeared which contained the PBMC. This was picked up with PBS/2 mM EDTA, filled up to 50 ml and subjected to several washing steps at 640×g, 500×g, 400×g, 300×g and 200×g. […]
as §2
Under corresponding conditions, the adhesion was determined after stimulation with phorbolester (PMA, 50 ng/ml, Sigma, Taufkirchen) or anti-beta-2 integrin antibodies MEM-48 (5 μg/ml, Vaclav Horeijsi, Czech Academy of Sciences Prague). […]

The compound `COc1nc(-c2ccc3c(c2)OCO3)n(-c2ccc(NC(=O)CSc3ccccc3)cc2)n1` [Compound 9] displayed a CC50 at 24 h in data set [1] of 141 ± 8 µM. The “inhibition of the migration of dendritic cells on the substrate ICAM-1” value with human dendritic cells [2] is “concentration-dependent inhibition”. For the same compound, the “percentage of PI-positive (dead) cells” value in data set [3] (2 hours, 24 hours and 72 hours) is given as “did not rise in a concentration-dependent or time-dependent manner”. Also, the cytotoxicity entry in data set [3] (conclusion from PI flow cytometry, up to 72 hours) is given as “no cytotoxicity or at least no clearly detectable cytotoxicity”. The “inhibition of the adhesion of dendritic cells on the substrate ICAM-1” value in the data set with human dendritic cells [4] was “concentration-dependent inhibition”.

The CC50 is the concentration that lowers cell viability or growth by half.
